Measurements from US6756359B2, “C12 modified erythromycin macrolides and ketolides having antibacterial activity” (Chiron Corporation, priority 2001, dated 2004).
Values after ≈ are worked out from the molar mass of the structure shown.

Key:
Experiment in all cases: Antibacterial activity in vitro, MIC by broth microdilution
[1] = tested on: S. epidermidis Step_f50654 Pen S; assay type: cell-based; settings: Table 5, Strain ID C: S. epidermidis Step_f50654; unit assumed
Procedure, shortened: (§1)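 Broth microdilution per NCCLS in cation-adjusted Mueller-Hinton broth, final inoculum 3×10^5–7×10^5 CFU/mL, 2-fold serial drug dilutions, 35° C. for 18-24 hours. S. pneumoniae grown in CAMHB with 2-5% lysed horse blood under 5-10% CO2. MIC is the lowest concentration preventing visible growth.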

[2] = tested on: S. epidermidis Step_14990; assay type: cell-based; settings: Table 5, Strain ID B: S. epidermidis Step_14990; unit assumed
Procedure, shortened: as §1

S. aureus Stau_29213 = assay type: cell-based; settings: Table 5, Strain ID A: S. aureus Stau_29213; unit assumed
Procedure, shortened: as §1

E. faecalis Enfa_29212 = assay type: cell-based; settings: Table 5, Strain ID D: E. faecalis Enfa_29212; unit assumed
Procedure, shortened: as §1

S. pyogenes Stpy_8668 = assay type: cell-based; settings: Table 5, Strain ID E: S. pyogenes Stpy_8668
Procedure, shortened: as §1

H. influenzae Hain_49247 = assay type: cell-based, Haemophilus influenzae; settings: Table 5, Strain ID M: H. influenzae Hain_49247; unit assumed
Procedure, shortened: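 Visible-growth inhibition defined the MIC, obtained by NCCLS broth microdilution at 35° C. over 18-24 hours with a final inoculum of 3×10^5–7×10^5 CFU/mL.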

S. pneumoniae Stpn_49619 = assay type: cell-based, Streptococcus pneumoniae; settings: Table 5, Strain ID F: S. pneumoniae Stpn_49619
Procedure, shortened: as §1

[3] = tested on: S. pneumoniae Stpn_Mef 5654; assay type: cell-based, Streptococcus pneumoniae; settings: Table 5, Strain ID K: S. pneumoniae Stpn_Mef 5654; unit assumed
Procedure, shortened: as §1

[4] = tested on: S. pneumoniae Stpn_Erm S 4297; assay type: cell-based, Streptococcus pneumoniae; settings: Table 5, Strain ID J: S. pneumoniae Stpn_Erm S 4297
Procedure, shortened: as §1

[5] = tested on: S. pneumoniae Stpn_297-749 Pen R; assay type: cell-based, Streptococcus pneumoniae; settings: Table 5, Strain ID G: S. pneumoniae Stpn_297-749
Procedure, shortened: as §1

[6] = tested on: S. pneumoniae Stpn_Mef S 3427; assay type: cell-based, Streptococcus pneumoniae; settings: Table 5, Strain ID L: S. pneumoniae Stpn_Mef S 3427; unit assumed
Procedure, shortened: as §1

[7] = tested on: S. pneumoniae Stpn_280-962 Pen S; assay type: cell-based, Streptococcus pneumoniae; settings: Table 5, Strain ID H: S. pneumoniae Stpn_280-962
Procedure, shortened: as §1

[8] = tested on: S. pneumoniae Stpn_Erm 6849; assay type: cell-based, Streptococcus pneumoniae; settings: Table 5, Strain ID I: S. pneumoniae Stpn_Erm 6849
Procedure, shortened: as §1

Row | SMILES | MIC [1] [µg/mL] | MIC [2] [µg/mL] | MIC (S. aureus Stau_29213) [µg/mL] | MIC (E. faecalis Enfa_29212) [µg/mL] | MIC (S. pyogenes Stpy_8668) | MIC (H. influenzae Hain_49247) [µg/mL] | MIC [3] [µg/mL] | MIC [5] | MIC [6] [µg/mL] | MIC [7] | MIC ([8]; unit assumed) [µg/mL] | MIC (S. pneumoniae Stpn_49619) | MIC [4] | MIC (S. pneumoniae Stpn_49619; unit assumed) [µg/mL] | MIC ([4]; unit assumed) [µg/mL] | MIC [8] | MIC (S. pyogenes Stpy_8668; unit assumed) [µg/mL] | MIC ([5]; unit assumed) [µg/mL] | MIC ([7]; unit assumed) [µg/mL]
1 | CC[C@H]1OC(=O)[C@H](C)C(=O)[C@H](C)[C@@H](OC2O[C@H](C)C[C@H](N(C)C)[C@H]2O)[C@@](C)(OC)C[C@@H](C)C(=O)[C@H](C)[C@H]2N(CCCCn3cnc(-c4ccc(F)nc4)c3)C(=O)O[C@]12CC (stereo partly drawn) [Example 33, (3aS,4R,7R,9R,10R,11S,13R,15R,15aR)-3a,4-diethyl-1-{4-[4-(6-fluoropyridin-3-yl)-1H-imidazol-1-yl]butyl}-11-methoxy-7,9,11,13,15-pentamethyl-2,6,8,14-tetraoxotetradecahydro-2H-oxacyclotetradecino[4,3-d][1,3]oxazol-10-yl 3,4,6-trideoxy-3-(dimethylamino)-D-xylo-hexopyranoside] | 0.2 (≈ 0.237 µM) | 0.2 (≈ 0.237 µM) | 0.4 (≈ 0.474 µM) | 0.1 (≈ 0.118 µM) | ≦0.05 | 0.1 (≈ 0.118 µM) | 0.1 (≈ 0.118 µM) | ≦0.05 | 0.4 (≈ 0.474 µM) | ≦0.05 |  |  |  | 3.13 (≈ 3.71 µM) | 0.4 (≈ 0.474 µM) | ≦0.05 |  |  | 
2 | CC[C@H]1OC(=O)[C@H](C)C(=O)[C@H](C)[C@@H](OC2O[C@H](C)C[C@H](N(C)C)[C@H]2O)[C@@](C)(OC)C[C@@H](C)C(=O)[C@H](C)[C@H]2N(CCCCc3ncc(-c4cccc(N)c4)s3)C(=O)O[C@]12CC (stereo partly drawn) [Example 34, (3aS,4R,7R,9R,10R,11S,13R,15R,15aR)-1-{4-[5-(3-aminophenyl)-1,3-thiazol-2-yl]butyl}-3a,4-diethyl-11-methoxy-7,9,11,13,15-pentamethyl-2,6,8,14-tetraoxotetradecahydro-2H-oxacyclotetradecino[4,3-d][1,3]oxazol-10-yl 3,4,6-trideoxy-3-(dimethylamino)-D-xylo-hexopyranoside] | 0.2 (≈ 0.233 µM) | 0.2 (≈ 0.233 µM) | 0.4 (≈ 0.467 µM) | 0.1 (≈ 0.117 µM) | ≦0.05 | 0.1 (≈ 0.117 µM) | 0.2 (≈ 0.233 µM) | ≦0.05 | 0.4 (≈ 0.467 µM) | ≦0.05 |  |  |  | 3.13 (≈ 3.65 µM) | 12.5 (≈ 14.6 µM) | ≦0.05 |  |  | 
3 | CC[C@H]1OC(=O)[C@H](C)C(=O)[C@H](C)[C@@H](OC2O[C@H](C)C[C@H](N(C)C)[C@H]2O)[C@@](C)(OC)C[C@@H](C)C(=O)[C@H](C)[C@H]2N(CCCOc3ccc(-c4cccnc4)cc3)C(=O)O[C@]12CC (stereo partly drawn) [Example 36, (3aS,4R,7R,9R,10R,11S,13R,15R,15aR)-3a,4-diethyl-11-methoxy-7,9,11,13,15-pentamethyl-2,6,8,14-tetraoxo-1-[3-(4-pyridin-3-ylphenoxy)propyl]-tetradecahydro-2H-oxacyclotetradecino[4,3-d][1,3]oxazol-10-yl 3,4,6-trideoxy-3-(dimethylamino)-D-xylo-hexopyranoside] | 0.78 (≈ 0.931 µM) | 1.56 (≈ 1.86 µM) | 6.25 (≈ 7.46 µM) | 0.78 (≈ 0.931 µM) |  | 0.2 (≈ 0.239 µM) | 12.5 (≈ 14.9 µM) |  | 0.78 (≈ 0.931 µM) |  | 0.1 (≈ 0.119 µM) |  |  | 25 (≈ 29.8 µM) | 12.5 (≈ 14.9 µM) |  | 0.4 (≈ 0.477 µM) | 0.1 (≈ 0.119 µM) | 0.1 (≈ 0.119 µM)

Further lines, with some results ahead:

Row | MIC [1] [µg/mL] | MIC [2] [µg/mL] | MIC (S. aureus Stau_29213) [µg/mL] | MIC (E. faecalis Enfa_29212) [µg/mL] | MIC (S. pyogenes Stpy_8668) | MIC (H. influenzae Hain_49247) [µg/mL] | MIC [3] [µg/mL] | MIC [5] | MIC [6] [µg/mL] | MIC [7] | MIC ([8]; unit assumed) [µg/mL] | MIC (S. pneumoniae Stpn_49619) | MIC [4] | SMILES | MIC (S. pneumoniae Stpn_49619; unit assumed) [µg/mL] | MIC ([4]; unit assumed) [µg/mL] | MIC [8] | MIC (S. pyogenes Stpy_8668; unit assumed) [µg/mL] | MIC ([5]; unit assumed) [µg/mL] | MIC ([7]; unit assumed) [µg/mL]
4 | 0.78 (≈ 0.931 µM) | 0.78 (≈ 0.931 µM) | 0.78 (≈ 0.931 µM) | 0.2 (≈ 0.239 µM) |  | 0.2 (≈ 0.239 µM) | 0.78 (≈ 0.931 µM) | ≦0.05 | 0.78 (≈ 0.931 µM) | ≦0.05 |  |  |  | CC[C@H]1OC(=O)[C@H](C)C(=O)[C@H](C)[C@@H](OC2O[C@H](C)C[C@H](N(C)C)[C@H]2O)[C@@](C)(OC)C[C@@H](C)C(=O)[C@H](C)[C@H]2N(CCCOc3cccc(-c4cccnc4)c3)C(=O)O[C@]12CC (stereo partly drawn) [Example 35, (3aS,4R,7R,9R,10R,11S,13R,15R,15aR)-3a,4-diethyl-11-methoxy-7,9,11,13,15-pentamethyl-2,6,8,14-tetraoxo-1-[3-(3-pyridin-3-ylphenoxy)propyl]-tetradecahydro-2H-oxacyclotetradecino[4,3-d][1,3]oxazol-10-yl 3,4,6-trideoxy-3-(dimethylamino)-D-xylo-hexopyranoside] | 6.25 (≈ 7.46 µM) | 3.13 (≈ 3.73 µM) | ≦0.05 | 0.2 (≈ 0.239 µM) |  | 
5 | 0.2 (≈ 0.242 µM) | 0.2 (≈ 0.242 µM) | 0.4 (≈ 0.483 µM) | 0.1 (≈ 0.121 µM) | ≦0.05 | 6.25 (≈ 7.55 µM) | 1.56 (≈ 1.88 µM) | ≦0.05 | 0.2 (≈ 0.242 µM) | ≦0.05 | 0.4 (≈ 0.483 µM) | ≦0.05 |  | CC[C@H]1OC(=O)[C@H](C)C(=O)[C@H](C)[C@@H](OC2O[C@H](C)C[C@H](N(C)C)[C@H]2O)[C@@](C)(OC)C[C@@H](C)C(=O)[C@H](C)[C@H]2N(CCCC(C)(C)n3cnc4ncccc43)C(=O)O[C@]12CC (stereo partly drawn) [Example 37, (3aS,4R,7R,9R,10R,11S,13R,15R,15aR)-3a,4-diethyl-1-[4-(1H-imidazo[4,5-b]pyridin-1-yl)-4-methylpentyl]-11-methoxy-7,9,11,13,15-pentamethyl-2,6,8,14-tetraoxotetradecahydro-2H-oxacyclotetradecino[4,3-d][1,3]oxazol-10-yl 3,4,6-trideoxy-3-(dimethylamino)-D-xylo-hexopyranoside] |  | 0.1 (≈ 0.121 µM) |  |  |  | 
6 | 0.2 (≈ 0.242 µM) | 0.2 (≈ 0.242 µM) | 0.2 (≈ 0.242 µM) | 0.1 (≈ 0.121 µM) | ≦0.05 | 6.25 (≈ 7.55 µM) | 0.78 (≈ 0.942 µM) | ≦0.05 | 0.1 (≈ 0.121 µM) | ≦0.05 | 0.4 (≈ 0.483 µM) | ≦0.05 |  | CC[C@H]1OC(=O)[C@H](C)C(=O)[C@H](C)[C@@H](OC2O[C@H](C)C[C@H](N(C)C)[C@H]2O)[C@@](C)(OC)C[C@@H](C)C(=O)[C@H](C)[C@H]2N(CCCC(C)(C)n3cnc4cccnc43)C(=O)O[C@]12CC (stereo partly drawn) [Example 38, (3aS,4R,7R,9R,10R,11S,13R,15R,15aR)-3a,4-diethyl-1-[4-(3H-imidazol[4,5-b]pyridin-3-yl)-4-methylpentyl]-11-methoxy-7,9,11,13,15-pentamethyl-2,6,8,14-tetraoxotetradecahydro-2H-oxacyclotetradecino[4,3-d][1,3]oxazol-10-yl 3,4,6-trideoxy-3-(dimethylamino)-D-xylo-hexopyranoside] |  | 0.1 (≈ 0.121 µM) |  |  |  | 
7 | 0.2 (≈ 0.236 µM) | 0.2 (≈ 0.236 µM) | 0.2 (≈ 0.236 µM) | 0.1 (≈ 0.118 µM) | ≦0.05 | 6.25 (≈ 7.39 µM) | 0.78 (≈ 0.922 µM) | ≦0.05 | 0.2 (≈ 0.236 µM) | ≦0.05 | 0.2 (≈ 0.236 µM) | ≦0.05 | ≦0.05 | CC[C@H]1OC(=O)[C@@](C)(F)C(=O)[C@H](C)[C@@H](O[C@@H]2O[C@H](C)C[C@H](N(C)C)[C@H]2O)[C@@](C)(OC)C[C@@H](C)C(=O)[C@H](C)[C@H]2N(CCCC(C)(C)n3cnc4cccnc43)C(=O)O[C@]12CC [Example 40, (3aS,4R,7S,9R,10R,11S,13R,15R,15aR)-3a,4-diethyl-7-fluoro-1-[4-(3H-imidazo[4,5-b]pyridin-3-yl)-4-methylpentyl]-11-methoxy-7,9,11,13,15-pentamethyl-2,6,8,14-tetraoxotetradecahydro-2H-oxacyclotetradecino[4,3-d][1,3]oxazol-10-yl 3,4,6-trideoxy-3-(dimethylamino)-D-xylo-hexopyranoside] |  |  |  |  |  | 
8 | 0.2 (≈ 0.243 µM) | 0.2 (≈ 0.243 µM) | 0.2 (≈ 0.243 µM) | 0.1 (≈ 0.121 µM) | ≦0.05 | 3.13 (≈ 3.8 µM) | 0.78 (≈ 0.947 µM) | ≦0.05 | 0.1 (≈ 0.121 µM) | ≦0.05 | 0.4 (≈ 0.485 µM) | ≦0.05 | ≦0.05 | C=C[C@]12OC(=O)N(CCCCn3cnc(-c4cccnc4)c3)[C@@H]1[C@@H](C)C(=O)[C@H](C)C[C@@](C)(OC)[C@H](OC1O[C@H](C)C[C@H](N(C)C)[C@H]1O)[C@@H](C)C(=O)[C@@H](C)C(=O)O[C@@H]2CC (stereo partly drawn) [Example 48, (3aS,4R,7R,9R,10R,11R,13R,15R,15aR)-4-ethyl-11-methoxy-7,9,11,13,15-pentamethyl-2,6,8,14-tetraoxo-1-[4-(4-pyridin-3-yl-1H-imidazol-1-yl)butyl]-3a-vinyltetradecahydro-2H-oxacyclotetradecino[4,3-d][1,3]oxazol-10-yl 3,4,6-trideoxy-3-(dimethylamino)-D-xylo-hexopyranoside] |  |  |  |  |  | 
